Test results published in US20070049593A1 (priority 2004, published 2007).
Where a name gives a salt, the structure may show the parent alone.

The molecules below were run against T1, HCV polymerase (Hepatitis C virus genotype 1b, UniProt P26663) (assay: biochemical).
T1 construct: a region encoding NS5B (J Virol 1991 March, 65(3), 1105-13, 544 amino acids after deletion of 47 amino acids on the C-terminal); 6xHis (C); made in house; host or cells: Escherichia coli
Set-up: species or system HCV BK strain
Source text: The evaluation of the HCV polymerase inhibitory activity of the compound of the present invention is explained in the following. This polymerase is an enzyme coded for by the non-structural protein region called NS5B on the genome RNA of HCV (EMBO J., 15:12-22, 1996).
Using, as a template, a cDNA clone corresponding to the full length genome RNA of HCV BK strain obtained from the blood of a patient with hepatitis C, a region encoding NS5B (J Virol 1991 March, 65(3), 1105-13, 544 amino acids after deletion of 47 amino acids on the C-terminal) was amplified by PCR. The objective gene was prepared by adding a 6 His tag {base pair encoding 6 continuous histidine (His)}to the 3′ end thereof and transformed to Escherichia coli. The Escherichia coli capable of producing the objective protein was cultured. The obtained cells were suspended in a buffer solution and crushed in a microfluidizer.
Using a synthetic primer designed based on the sequence of HCV genomic 3′ untranslated region, a DNA fragment (148 bp) containing polyU and 3′X sequence was entirely synthesized and cloned into plasmid pBluescript SK II(+) (Stratagene). The cDNA encoding full length NS5B, which was prepared in i) above, was digested with restriction enzyme KpnI to give a cDNA fragment containing the nucleotide sequence of from the restriction enzyme cleavage site to the termination codon. This cDNA fragment was inserted into the upstream of 3′ untranslated region of the DNA in pBluescript SK II(+) and ligated. The about 450 bp inserted DNA sequence was used as a template in the preparation of substrate RNA.
RNA was synthesized (37° C., 3 hr) by run-off method using this purified DNA as a template, a promoter of pBluescript SK II(+), MEGAscript RNA synthesis kit (Ambion) and T7 RNA polymerase. DNase I was added and the mixture was incubated for 1 hr. The template DNA was removed by decomposition to give a crude RNA product.
A test substance (compound of the present invention) and a reaction mixture (30 μl) having the following composition were reacted at 25° C. for 90 min.
10% Trichloroacetic acid at 4° C. and 1% sodium pyrophosphate solution (150 μl) were added to this reaction mixture to stop the reaction. The reaction mixture was left standing in ice for 15 min to insolubilize RNA. This RNA was trapped on a glass filter (Whatman GF/C and the like) upon filtration by suction. This filter was washed with a solution containing 1% trichloroacetic acid and 0.1% sodium pyrophosphate, washed with 90% ethanol and dried. A liquid scintillation cocktail (Packard) was added and the radioactivity of RNA synthesized by the enzyme reaction was measured on a liquid scintillation counter.
The HCV polymerase inhibitory activity (IC50) of the compound of the present invention was calculated from the values of radioactivity of the enzyme reaction with and without the test substance.
Reaction mixture: HCV polymerase (0.5 μg/ml) obtained in i), substrate RNA (5 μg/ml) obtained in ii), ATP (50 μM), GTP (50 μM), CTP ([…]), UTP (2 μM), [5,6-^3H]UTP (46 Ci/mmol (Amersham), 1 μCi) 20 mM Tris-HCl (pH 7.5), EDTA (1 mM), MgCl2 (5 mM), NaCl (50 mM), DTT (1 mM), BSA (0.01%)

T1 sequence (P26663 2420-2963): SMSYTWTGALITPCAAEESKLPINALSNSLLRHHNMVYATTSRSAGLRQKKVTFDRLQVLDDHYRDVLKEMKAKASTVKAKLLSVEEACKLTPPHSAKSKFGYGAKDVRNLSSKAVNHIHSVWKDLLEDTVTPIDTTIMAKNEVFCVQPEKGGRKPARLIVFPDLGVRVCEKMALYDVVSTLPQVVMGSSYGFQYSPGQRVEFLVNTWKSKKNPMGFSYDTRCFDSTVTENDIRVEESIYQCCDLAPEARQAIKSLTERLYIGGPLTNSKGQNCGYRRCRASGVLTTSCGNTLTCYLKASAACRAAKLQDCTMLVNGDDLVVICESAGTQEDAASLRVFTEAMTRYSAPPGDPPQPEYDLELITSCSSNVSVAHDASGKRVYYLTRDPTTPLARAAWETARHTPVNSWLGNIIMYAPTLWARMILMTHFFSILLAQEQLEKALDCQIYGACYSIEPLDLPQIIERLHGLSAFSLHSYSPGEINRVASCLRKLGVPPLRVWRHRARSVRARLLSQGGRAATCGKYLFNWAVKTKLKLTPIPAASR

Structure (SMILES) | IC50 [nM]
O=C(O)c1ccc2c(C3CCCCC3)c3n(c2c1)CCNc1ccccc1-3 [Example 1-3, 13-cyclohexyl-6,7-dihydro-5H-benzo[5,6][1,4]diazepino[7,1-a]indole-10-carboxylic acid monohydrochloride] | < 100
O=C(O)c1ccc2c(C3CCCCC3)c3n(c2c1)CCN(CC(=O)N1CCSCC1)c1ccccc1-3 [Example 1-7, 13-cyclohexyl-5-[2-oxo-2-(thiomorpholin-4-yl)ethyl]-6,7-dihydro-5H-benzo[5,6][1,4]diazepino[7,1-a]indole-10-carboxylic acid monohydrochloride] | < 100
O=C(O)c1ccc2c(C3CCCCC3)c3n(c2c1)CCN(CCN1CCSCC1)c1ccccc1-3 [Example 1-9, 13-cyclohexyl-5-[2-(thiomorpholin-4-yl)ethyl]-6,7-dihydro-5H-benzo[5,6][1,4]diazepino[7,1-a]indole-10-carboxylic acid dihydrochloride] | < 100
O=C(O)c1ccc2c(C3CCCCC3)c3n(c2c1)CCN(CCN1CCCCC1)c1cc(Cl)ccc1-3 [Example 1-14, 3-chloro-13-cyclohexyl-5-[2-(piperidin-1-yl)ethyl]-6,7-dihydro-5H-benzo[5,6][1,4]diazepino[7,1-a]indole-10-carboxylic acid dihydrochloride] | < 100
O=C(O)c1ccc2c(C3CCCCC3)c3n(c2c1)CCN(CCN1CCCCC1)c1ccc(F)cc1-3 [Example 1-18, 13-cyclohexyl-2-fluoro-5-[2-(piperidin-1-yl)ethyl]-6,7-dihydro-5H-benzo[5,6][1,4]diazepino[7,1-a]indole-10-carboxylic acid dihydrochloride] | < 100
CC(=O)N1CCn2c(c(C3CCCCC3)c3ccc(C(=O)O)cc32)-c2ccccc21 [Example 1-19, 5-acetyl-13-cyclohexyl-6,7-dihydro-5H-benzo[5,6][1,4]diazepino[7,1-a]indole-10-carboxylic acid] | 100 to 1000
CN1CCn2c(c(C3CCCCC3)c3ccc(C(=O)O)cc32)-c2ccccc21 [Example 1-20, 13-cyclohexyl-5-methyl-6,7-dihydro-5H-benzo[5,6][1,4]diazepino[7,1-a]indole-10-carboxylic acid] | < 100
CN(C)C(=O)CN1CCn2c(c(C3CCCCC3)c3ccc(C(=O)O)cc32)-c2ccccc21 [Example 1-21, 13-cyclohexyl-5-dimethylcarbamoylmethyl-6,7-dihydro-5H-benzo[5,6][1,4]diazepino[7,1-a]indole-10-carboxylic acid] | < 100
O=C(O)c1ccc2c(C3CCCCC3)c3n(c2c1)CCN(Cc1ccccc1)c1ccccc1-3 [Example 1-22, 5-benzyl-13-cyclohexyl-6,7-dihydro-5H-benzo[5,6][1,4]diazepino[7,1-a]indole-10-carboxylic acid] | < 100
CC(C)N1CCn2c(c(C3CCCCC3)c3ccc(C(=O)O)cc32)-c2ccccc21 [Example 1-23, 13-cyclohexyl-5-isopropyl-6,7-dihydro-5H-benzo[5,6][1,4]diazepino[7,1-a]indole-10-carboxylic acid monohydrochloride] | < 100
O=C1Cn2c(c(C3CCCCC3)c3ccc(C(=O)O)cc32)-c2ccccc2N1 [Example 1-24, 13-cyclohexyl-6-oxo-6,7-dihydro-5H-benzo[5,6][1,4]diazepino[7,1-a]indole-10-carboxylic acid] | < 100
O=C(CN1CCn2c(c(C3CCCCC3)c3ccc(C(=O)O)cc32)-c2ccccc21)NCc1ccccc1 [Example 1-25, 5-(benzylcarbamoylmethyl)-13-cyclohexyl-6,7-dihydro-5H-benzo[5,6][1,4]diazepino[7,1-a]indole-10-carboxylic acid] | < 100
O=C(O)c1ccc2c(C3CCCCC3)c3n(c2c1)CCN(CC(=O)N1CCOCC1)c1ccccc1-3 [Example 1-26, 13-cyclohexyl-5-[2-(morpholin-4-yl)-2-oxoethyl]-6,7-dihydro-5H-benzo[5,6][1,4]diazepino[7,1-a]indole-10-carboxylic acid] | < 100
O=C(O)c1ccc2c(C3CCCCC3)c3n(c2c1)CCN(CCN1CCOCC1)c1ccccc1-3 [Example 1-27, 13-cyclohexyl-5-[2-(morpholin-4-yl)ethyl]-6,7-dihydro-5H-benzo[5,6][1,4]diazepino[7,1-a]indole-10-carboxylic acid dihydrochloride] | < 100
COc1ccc2c(c1)N(CC(=O)N(C)C)CCn1c-2c(C2CCCCC2)c2ccc(C(=O)O)cc21 [Example 1-28, 13-cyclohexyl-5-dimethylcarbamoylmethyl-3-methoxy-6,7-dihydro-5H-benzo[5,6][1,4]diazepino[7,1-a]indole-10-carboxylic acid] | < 100
O=C(O)c1ccc2c(C3CCCCC3)c3n(c2c1)CCN(CC(=O)N1CCCCC1)c1ccccc1-3 [Example 1-29, 13-cyclohexyl-5-[2-oxo-2-(piperidin-1-yl)ethyl]-6,7-dihydro-5H-benzo[5,6][1,4]diazepino[7,1-a]indole-10-carboxylic acid] | < 100
CCN1CCN(C(=O)CN2CCn3c(c(C4CCCCC4)c4ccc(C(=O)O)cc43)-c3ccccc32)CC1 [Example 1-30, 13-cyclohexyl-5-[2-(4-ethylpiperazin-1-yl)-2-oxoethyl]-6,7-dihydro-5H-benzo[5,6][1,4]diazepino[7,1-a]indole-10-carboxylic acid dihydrochloride] | < 100
CN(C)C(=O)N1CCn2c(c(C3CCCCC3)c3ccc(C(=O)O)cc32)-c2ccccc21 [Example 1-31, 13-cyclohexyl-5-dimethylcarbamoyl-6,7-dihydro-5H-benzo[5,6][1,4]diazepino[7,1-a]indole-10-carboxylic acid] | 100 to 1000
O=C(O)c1ccc2c(C3CCCCC3)c3n(c2c1)CCN(CCN1CCCCC1)c1ccccc1-3 [Example 1-32, 13-cyclohexyl-5-[2-(piperidin-1-yl)ethyl]-6,7-dihydro-5H-benzo[5,6][1,4]diazepino[7,1-a]indole-10-carboxylic acid dihydrochloride] | < 100
O=C(CN1CCn2c(c(C3CCCCC3)c3ccc(C(=O)O)cc32)-c2ccccc21)NCc1ccccn1 [Example 1-33, 13-cyclohexyl-5-{[(pyridin-2-ylmethyl)carbamoyl]methyl}-6,7-dihydro-5H-benzo[5,6][1,4]diazepino[7,1-a]indole-10-carboxylic acid dihydrochloride] | < 100
O=C(O)c1ccc2c(C3CCCCC3)c3n(c2c1)CCN(CCNCc1ccccn1)c1ccccc1-3 [Example 1-34, 13-cyclohexyl-5-{2-[(pyridin-2-ylmethyl)amino]ethyl}-6,7-dihydro-5H-benzo[5,6][1,4]diazepino[7,1-a]indole-10-carboxylic acid trihydrochloride] | < 100
O=C(O)c1ccc2c(C3CCCCC3)c3n(c2c1)CCN(CC(=O)N1CCC(O)CC1)c1ccccc1-3 [Example 1-35, 13-cyclohexyl-5-[2-(4-hydroxypiperidin-1-yl)-2-oxoethyl]-6,7-dihydro-5H-benzo[5,6][1,4]diazepino[7,1-a]indole-10-carboxylic acid monohydrochloride] | < 100
COC1CCN(C(=O)CN2CCn3c(c(C4CCCCC4)c4ccc(C(=O)O)cc43)-c3ccccc32)CC1 [Example 1-36, 13-cyclohexyl-5-[2-(4-methoxypiperidin-1-yl)-2-oxoethyl]-6,7-dihydro-5H-benzo[5,6][1,4]diazepino[7,1-a]indole-10-carboxylic acid monohydrochloride] | < 100
COCCN(C)C(=O)CN1CCn2c(c(C3CCCCC3)c3ccc(C(=O)O)cc32)-c2ccccc21 [Example 1-37, 13-cyclohexyl-5-{[N-(2-methoxyethyl)-N-methylcarbamoyl]methyl}-6,7-dihydro-5H-benzo[5,6][1,4]diazepino[7,1-a]indole-10-carboxylic acid monohydrochloride] | < 100
